Values belong to the molecule of their own block, whether it stands above or below them.
Tests used:
Assay in all cases: competitive isoTOP-ABPP
Type in all cases: binding
ADK Adenosine kinase = target: T1, ADK Adenosine kinase (Homo sapiens, UniProt P55263); conditions: for isoTOP-ABPP ratio, lysine P55263_K88: 50 uM_231_sol_in vitro; for R value (DMSO/fragment) for probe 1 labeling: P55263_K88, 231 sol; for R value (DMSO/fragment) for probe 1 labeling / isoTOP-ABPP ratio (R) at liganded lysine P55263_K88: 50 uM, in vitro; for isoTOP-ABPP ratio (R) at liganded lysine P55263_K88: sol, 231
T1 construct: isoTOP-ABPP experiments performed in cell lysates (in vitro); endogenous in cells; host or cells: soluble proteome of human cancer cell lines (MDA-MB-231, Ramos, Jurkat)
T1 sequence (P55263 whole entry, the tested form may be a part): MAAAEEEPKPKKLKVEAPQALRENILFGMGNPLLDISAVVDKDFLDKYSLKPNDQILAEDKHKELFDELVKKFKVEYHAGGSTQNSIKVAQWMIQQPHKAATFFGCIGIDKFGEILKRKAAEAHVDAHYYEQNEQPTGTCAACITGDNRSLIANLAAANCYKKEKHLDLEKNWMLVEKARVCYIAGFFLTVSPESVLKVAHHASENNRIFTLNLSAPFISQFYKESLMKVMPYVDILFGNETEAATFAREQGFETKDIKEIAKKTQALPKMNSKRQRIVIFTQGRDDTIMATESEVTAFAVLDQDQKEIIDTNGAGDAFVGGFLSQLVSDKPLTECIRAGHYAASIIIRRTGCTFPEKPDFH
Description: (§1) In vitro covalent fragment treatment for isoTOP-ABPP. All compounds were made up as solutions in DMSO (100×) and were used at a final concentration of 50 μM for activated esters and 100 μM for guanidinylating agents. For each profiling sample, 0.5 ml of lysate was treated with 5 μl of the 100× compound stock solution or 5 μl of DMSO. Samples were treated with activated esters for
(§2) STP-alkyne labeling and click chemistry. For concentration-dependent reactivity measurements by isoTOP-ABPP, 0.5 ml proteome aliquots were treated at ambient temperature with 1 mM STP-alkyne 1 (5 μl of 100 mM stock in DMSO) and 0.1 mM STP alkyne 1 (5 μl of 10 mM stock in DMSO), respectively. For competitive isoTOP-ABPP, after in vitro fragment treatment (detailed above), the samples were labeled for 1 h at ambient temperature with 0.1 mM STP-alkyne 1 (5 μl of 10 mM stock in DMSO). Samples were conjugated by copper-mediated azide-alkyne cycloaddition (CuAAC) to either the light (1 mM STP-alkyne or fragment treated) or heavy (0.1 mM STP-alkyne or DMSO treated) TEV tags (10 μl of 5 mM stocks in DMSO, final concentration=100 μM) using tris(2-carboxyethyl)phosphine hydrochloride
(§3) R value calculation and processing. The ratios of light and heavy MS1 peaks for each unique peptide were quantified with a CIMAGE software using default parameters (3 MS1 acquisitions per peak and signal to noise threshold set to 2.5). For reactivity measurements by isoTOP-ABPP, the R value was calculated from the ratio of MS1 peak areas, comparing the 1 mM STP alkyne sample (light TEV tag) with the 0.1 mM STP alkyne sample (heavy TEV tag). For competitive isoTOP-ABPP, the R value was calculated from the ratio of MS1 peak areas, comparing the DMSO treated sample (heavy TEV tag) with the compound treated sample (light TEV tag). […] Ratios for unique peptide entries are calculated for each experiment; overlapping peptides with the same modified lysine (for example, different charge states, MudPIT chromatographic steps or tryptic termini) are grouped together and the median ratio is reported as the final ratio (R). The peptide ratios reported by CIMAGE were further filtered to ensure the removal or correction of low-quality ratios in each individual data set. The quality filters applied were the following: removal of half tryptic peptides; for ratios with high standard deviations from the median (90% of the median or above) the lowest ratio was taken instead of the median; removal of peptides with R=20 and only a single MS2 event triggered during the elution of the parent ion; manual annotation of all the peptides with ratios of 20, removing any peptides with low quality elution profiles that remained after the previous curation steps (only done for competitive isoTOP-ABPP).
(§4) Cross-data processing for fragment screening. For compound treated samples, biological replicates of the same condition were averaged, if the standard deviation was below 60% of the mean; otherwise, for lysines with at least one R value <4 for a particular compound, the lowest value of the ratio set was taken. For lysines, where all R values for a particular compound were ≥4, the average was reported. For peptides containing several possible modified lysines, the lysine with the highest number of quantification events was used for analysis and the remaining, redundant peptides were reported as alternative modification sites. Peptides included in the aggregate dataset (those used for further bioinformatics and statistical analyses) were required to have been quantified in 2 experiments for competitive isoTOP-ABPP. Lysines were categorized as liganded, if they had at least one ratio R≥4 (hit fragments). For liganded lysines with R=20 for all liganding events, lysines were required to have been quantified with R=20 in two separate experiments and were further required to have been quantified with R<20 in one additional experiment.

[1] = target: T2, ACBD3 Golgi resident protein GCP60 (Homo sapiens, UniProt Q9H3P7); conditions: for isoTOP-ABPP ratio, lysine Q9H3P7_K117: 50 uM_231_sol_in vitro; for R value (DMSO/fragment) for probe 1 labeling: Q9H3P7_K117, 231 sol; for R value (DMSO/fragment) for probe 1 labeling / isoTOP-ABPP ratio (R) at liganded lysine Q9H3P7_K117: 50 uM, in vitro; for isoTOP-ABPP ratio (R) at liganded lysine Q9H3P7_K117: sol, 231
T2 construct: isoTOP-ABPP experiments performed in cell lysates (in vitro); endogenous in cells; host or cells: soluble proteome of human cancer cell lines (MDA-MB-231; Ramos and Jurkat also prepared)
T2 sequence (Q9H3P7 1-528): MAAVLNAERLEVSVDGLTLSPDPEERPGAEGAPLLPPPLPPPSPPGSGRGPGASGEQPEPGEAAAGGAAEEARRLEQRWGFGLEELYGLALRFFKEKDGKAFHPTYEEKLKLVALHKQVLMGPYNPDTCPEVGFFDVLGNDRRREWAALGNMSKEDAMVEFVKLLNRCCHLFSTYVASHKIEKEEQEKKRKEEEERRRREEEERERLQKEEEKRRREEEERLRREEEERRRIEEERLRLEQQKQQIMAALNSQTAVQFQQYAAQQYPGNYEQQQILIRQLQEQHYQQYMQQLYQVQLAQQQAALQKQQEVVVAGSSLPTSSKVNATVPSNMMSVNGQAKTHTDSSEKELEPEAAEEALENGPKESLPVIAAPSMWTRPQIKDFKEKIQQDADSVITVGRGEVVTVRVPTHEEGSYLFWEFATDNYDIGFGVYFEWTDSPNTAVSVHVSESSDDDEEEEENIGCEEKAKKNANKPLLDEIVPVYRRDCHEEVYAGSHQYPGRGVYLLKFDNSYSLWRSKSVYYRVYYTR
Description: as §1, §2, §3, §4

[2] = target: T3, ABHD10 Abhydrolase domain-containing protein 10, mitochondrial (Homo sapiens, UniProt Q9NUJ1); conditions: for isoTOP-ABPP ratio, lysine Q9NUJ1_K185: 50 uM_231_sol_in vitro; for R value (DMSO/fragment) for probe 1 labeling: Q9NUJ1_K185, 231 sol; for R value (DMSO/fragment) for probe 1 labeling / isoTOP-ABPP ratio (R) at liganded lysine Q9NUJ1_K185: 50 uM, in vitro; for isoTOP-ABPP ratio (R) at liganded lysine Q9NUJ1_K185: sol, 231
T3 construct: endogenous in cells; host or cells: MDA-MB-231 lysate
T3 sequence (Q9NUJ1 53-306): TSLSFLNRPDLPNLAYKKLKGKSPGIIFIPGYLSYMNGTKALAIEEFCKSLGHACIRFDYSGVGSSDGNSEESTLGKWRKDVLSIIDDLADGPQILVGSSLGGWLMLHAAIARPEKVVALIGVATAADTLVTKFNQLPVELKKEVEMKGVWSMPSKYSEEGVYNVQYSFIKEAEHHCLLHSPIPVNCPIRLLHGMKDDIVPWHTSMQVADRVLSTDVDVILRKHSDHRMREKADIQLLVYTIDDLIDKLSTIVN
Description: as §1, §2, §3, §4

[3] = target: T4, PSME3 Proteasome activator complex subunit 3 (Homo sapiens, UniProt P61289); conditions: for R value (DMSO/fragment) for probe 1 labeling / isoTOP-ABPP ratio (R) at liganded lysine P61289_K12 / isoTOP-ABPP ratio (R) at liganded lysine P61289_K237: 50 uM, in vitro; for R value (DMSO/fragment) for probe 1 labeling: 231 sol; for isoTOP-ABPP ratio (R) at liganded lysine P61289_K12 / isoTOP-ABPP ratio (R) at liganded lysine P61289_K237: sol, 231
T4 construct: isoTOP-ABPP experiments performed in cell lysates (in vitro); endogenous in cells; host or cells: soluble proteome of human cancer cell lines (MDA-MB-231, Ramos, Jurkat)
T4 sequence (P61289 whole entry, the tested form may be a part, one chain of several): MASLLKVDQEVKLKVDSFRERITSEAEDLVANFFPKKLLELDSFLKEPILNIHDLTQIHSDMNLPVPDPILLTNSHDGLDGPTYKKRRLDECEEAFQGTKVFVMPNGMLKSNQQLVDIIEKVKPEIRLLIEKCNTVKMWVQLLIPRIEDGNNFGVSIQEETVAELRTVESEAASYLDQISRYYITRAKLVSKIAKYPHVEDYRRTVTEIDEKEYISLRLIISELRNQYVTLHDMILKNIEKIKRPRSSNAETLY
Description: as §1, §2, §3, §4

- isoTOP-ABPP ratio, lysine P55263_K88 (ADK Adenosine kinase): 0.9
- isoTOP-ABPP ratio, lysine Q9H3P7_K117 [1]: 0.9
- isoTOP-ABPP ratio, lysine Q9NUJ1_K185 [2]: 2.7
Compound: O=C(Oc1c(F)c(F)cc(F)c1F)c1cc(C(F)(F)F)cc(C(F)(F)F)c1 [fragment 48, 2,3,5,6-Tetrafluorophenyl 3,5-bis(trifluoromethyl)benzoate]

- R value (DMSO/fragment) for probe 1 labeling (ADK Adenosine kinase): 0.8
- R value (DMSO/fragment) for probe 1 labeling ([3]; P61289_K12): 1.0
- R value (DMSO/fragment) for probe 1 labeling ([3]; P61289_K237): 0.2
- R value (DMSO/fragment) for probe 1 labeling [1]: 1.0
- R value (DMSO/fragment) for probe 1 labeling [2]: 1.2
Compound: O=C(CCc1cn(-c2ccccc2)nc1-c1ccccc1)Oc1c(F)c(F)c(F)c(F)c1F [fragment 19, Pentafluorophenyl 3-(1,3-diphenyl-1H-pyrazol-4-yl)propanoate]

Compound: O=C(Oc1ccc([N+](=O)[O-])cc1[N+](=O)[O-])C(c1ccccc1)(c1ccccc1)c1ccccc1 [fragment 42, 2,4-Dinitrophenyl 2,2,2-triphenylacetate]
- isoTOP-ABPP ratio (R) at liganded lysine P55263_K88 (ADK Adenosine kinase): 1.0
- isoTOP-ABPP ratio (R) at liganded lysine P61289_K12 [3]: 0.9
- isoTOP-ABPP ratio (R) at liganded lysine P61289_K237 [3]: 0.9
- isoTOP-ABPP ratio (R) at liganded lysine Q9H3P7_K117 [1]: 1.0
- isoTOP-ABPP ratio (R) at liganded lysine Q9NUJ1_K185 [2]: 1.0

- R value (DMSO/fragment) for probe 1 labeling (ADK Adenosine kinase): 0.8
- R value (DMSO/fragment) for probe 1 labeling ([3]; P61289_K12): 1.0
- R value (DMSO/fragment) for probe 1 labeling ([3]; P61289_K237): 0.9
- R value (DMSO/fragment) for probe 1 labeling [1]: 0.9
- R value (DMSO/fragment) for probe 1 labeling [2]: 4.7
Compound: O=C(Oc1c(F)c(F)c(F)c(F)c1F)c1cc(C(F)(F)F)cc(C(F)(F)F)c1 [fragment 21, Pentafluorophenyl 3,5-bis(trifluoromethyl)benzoate]

Compound: CC(C)(C)OC(=O)NCCCC(=O)Oc1ccc([N+](=O)[O-])cc1[N+](=O)[O-] [fragment 41, 2,4-Dinitrophenyl 4-((tert-butoxycarbonyl)amino)butanoate]
- isoTOP-ABPP ratio (R) at liganded lysine P55263_K88 (ADK Adenosine kinase): 1.5
- isoTOP-ABPP ratio (R) at liganded lysine P61289_K12 [3]: 3.5
- isoTOP-ABPP ratio (R) at liganded lysine P61289_K237 [3]: 2.2
- isoTOP-ABPP ratio (R) at liganded lysine Q9H3P7_K117 [1]: 1.2
- isoTOP-ABPP ratio (R) at liganded lysine Q9NUJ1_K185 [2]: 3.3

- isoTOP-ABPP ratio, lysine P55263_K88 (ADK Adenosine kinase): 0.8
- isoTOP-ABPP ratio, lysine P61289_K12 ([3]; 50 uM_231_sol_in vitro): 1.1
- isoTOP-ABPP ratio, lysine P61289_K237 ([3]; 50 uM_231_sol_in vitro): 0.9
- isoTOP-ABPP ratio, lysine Q9H3P7_K117 [1]: 1.0
- isoTOP-ABPP ratio, lysine Q9NUJ1_K185 [2]: 1.8
Compound: O=C(Oc1c(F)c(F)c(C(F)(F)F)c(F)c1F)c1cc(C(F)(F)F)cc(C(F)(F)F)c1 [fragment 47, 2,3,5,6-Tetrafluoro-4-(trifluoromethyl)phenyl 3,5-bis(trifluoromethyl)benzoate]

Compound: O=C(Oc1ccc([N+](=O)[O-])cc1[N+](=O)[O-])C1CCN(C(=O)OCc2ccccc2)CC1 [fragment 34, 1-Benzyl 4-(2,4-dinitrophenyl) piperidine-1,4-dicarboxylate]
- isoTOP-ABPP ratio (R) at liganded lysine P55263_K88 (ADK Adenosine kinase): 20.0
- isoTOP-ABPP ratio (R) at liganded lysine P61289_K12 [3]: 1.4
- isoTOP-ABPP ratio (R) at liganded lysine Q9H3P7_K117 [1]: 1.1
- isoTOP-ABPP ratio (R) at liganded lysine Q9NUJ1_K185 [2]: 1.5
